# In patent US20100048597A1 (Novartis AG, priority 2006, published 2010):
# Assays:
# CDK2/cyclinA = molecular target: T1, CDK2/cyclinA (Homo sapiens, UniProt P24941); assay: CDK2/cyclinA kinase assay, IMAP fluorescence polarization; type: biochemical
# T1 construct: purchased Millipore
# Summary of the method: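 Recombinant purified enzyme reactions run 2 hours at room temperature with 1% DMSO final. Stopped with 1× Developer buffer (100% A) and IMAP beads 1/400, then 1 hour more before fluorescence polarization read. IC50 from mP values versus log concentration.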
# CDK7/cyclinH/MAT1 = molecular target: T2, CDK7/cyclinH/MAT1 (Homo sapiens, UniProt P50613); assay: CDK7/cyclinH/Mat1 kinase assay, IMAP fluorescence polarization; type: biochemical
# T2 construct: purchased Millipore
# T2 sequence (P50613 whole entry): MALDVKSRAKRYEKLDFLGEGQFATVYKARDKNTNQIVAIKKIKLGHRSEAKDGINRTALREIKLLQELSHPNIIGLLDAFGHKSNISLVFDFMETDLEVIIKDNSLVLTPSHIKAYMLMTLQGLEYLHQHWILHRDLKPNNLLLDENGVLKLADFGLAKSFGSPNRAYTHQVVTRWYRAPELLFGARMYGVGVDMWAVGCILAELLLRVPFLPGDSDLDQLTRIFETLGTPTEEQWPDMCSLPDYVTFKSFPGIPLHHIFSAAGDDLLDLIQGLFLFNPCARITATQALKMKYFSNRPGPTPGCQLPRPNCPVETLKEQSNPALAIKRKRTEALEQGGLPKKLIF
# T2 sequence (P51946 whole entry partner): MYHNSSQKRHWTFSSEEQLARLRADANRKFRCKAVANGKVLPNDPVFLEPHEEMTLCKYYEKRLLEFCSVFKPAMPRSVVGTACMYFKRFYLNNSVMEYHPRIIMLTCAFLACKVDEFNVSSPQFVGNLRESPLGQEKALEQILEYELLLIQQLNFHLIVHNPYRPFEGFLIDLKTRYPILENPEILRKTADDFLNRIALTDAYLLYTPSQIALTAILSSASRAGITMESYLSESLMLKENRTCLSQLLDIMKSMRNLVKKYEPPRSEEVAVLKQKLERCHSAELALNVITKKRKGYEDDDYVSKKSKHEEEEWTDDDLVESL
# T2 sequence (P51948 whole entry partner): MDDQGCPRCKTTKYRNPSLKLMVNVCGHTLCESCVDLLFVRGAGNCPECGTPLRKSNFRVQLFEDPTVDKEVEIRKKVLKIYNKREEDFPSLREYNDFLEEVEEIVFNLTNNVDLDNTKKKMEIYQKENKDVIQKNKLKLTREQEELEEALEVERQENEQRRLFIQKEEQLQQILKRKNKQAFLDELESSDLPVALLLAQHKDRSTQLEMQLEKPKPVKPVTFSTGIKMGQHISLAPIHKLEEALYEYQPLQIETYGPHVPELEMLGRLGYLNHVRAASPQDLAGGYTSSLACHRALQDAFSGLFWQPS
# Procedure: Kinase assays were performed on recombinant purified enzymes using the non-radioactive IMAP fluorescence polarization assay format.
# Compound stocks were prepared and diluted in DMSO and were added to kinase reactions at a 1/100 dilution for a final concentration of 1% DMSO. The components were added together to final concentrations listed in the tables below and incubated for two hours at room temperature.
# The reactions were stopped by addition of stop solution.
# CDK9/CDK1/CDK7: final stop concentration is 1× Developer buffer (85% A/15% B), IMAP beads 1/400
# The samples were allowed to incubate for one more hour at room temperature and then the fluorescence polarization was measured. The plate normalized millipolarization (mP) values were plotted against the log of compound concentration for each compound and IC50 values were calculated using the spotfire IC50 calculator and confirmed by visual analysis.
# CDK4 = CDK4 (Homo sapiens, UniProt P11802); assay: CDK4 kinase assay (Table F); type: biochemical
# CDK4, sequence (P11802 whole entry, species assumed): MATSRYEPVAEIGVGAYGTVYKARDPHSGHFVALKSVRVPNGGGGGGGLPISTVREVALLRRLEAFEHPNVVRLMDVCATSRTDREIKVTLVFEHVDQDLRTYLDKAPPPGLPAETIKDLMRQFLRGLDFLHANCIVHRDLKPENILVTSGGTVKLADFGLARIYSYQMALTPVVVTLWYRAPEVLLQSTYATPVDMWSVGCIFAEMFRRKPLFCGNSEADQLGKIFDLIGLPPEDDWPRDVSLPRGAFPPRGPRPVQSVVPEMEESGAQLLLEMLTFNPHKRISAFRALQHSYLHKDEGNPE
# CDK4, sequence (P24385 whole entry partner, species assumed): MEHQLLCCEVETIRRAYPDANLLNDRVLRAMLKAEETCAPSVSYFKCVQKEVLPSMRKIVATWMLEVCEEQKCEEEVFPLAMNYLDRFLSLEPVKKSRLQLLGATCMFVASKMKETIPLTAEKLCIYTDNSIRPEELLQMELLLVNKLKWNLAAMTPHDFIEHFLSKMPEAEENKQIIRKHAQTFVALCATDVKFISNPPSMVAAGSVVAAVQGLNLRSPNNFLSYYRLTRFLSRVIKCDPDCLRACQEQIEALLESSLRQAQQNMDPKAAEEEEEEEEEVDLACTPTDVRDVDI
# CDK9/cyclinT1 = molecular target: T3, CDK9/cyclinT1 (Homo sapiens, UniProt P50750); assay: CDK9/cyclinT1 kinase assay, IMAP fluorescence polarization; type: biochemical
# T3 construct: purchased Millipore
# T3 sequence (P50750 whole entry): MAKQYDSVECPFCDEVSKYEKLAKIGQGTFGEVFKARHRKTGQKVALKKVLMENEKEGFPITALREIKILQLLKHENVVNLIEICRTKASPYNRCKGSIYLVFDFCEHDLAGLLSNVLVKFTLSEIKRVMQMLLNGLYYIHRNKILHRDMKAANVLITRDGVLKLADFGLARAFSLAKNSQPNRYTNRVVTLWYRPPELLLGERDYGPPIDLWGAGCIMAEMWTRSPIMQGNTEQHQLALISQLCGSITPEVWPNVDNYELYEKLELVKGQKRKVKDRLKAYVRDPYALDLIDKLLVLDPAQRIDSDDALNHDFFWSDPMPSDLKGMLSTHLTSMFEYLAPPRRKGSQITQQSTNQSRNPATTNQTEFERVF
# T3 sequence (O60563 whole entry partner): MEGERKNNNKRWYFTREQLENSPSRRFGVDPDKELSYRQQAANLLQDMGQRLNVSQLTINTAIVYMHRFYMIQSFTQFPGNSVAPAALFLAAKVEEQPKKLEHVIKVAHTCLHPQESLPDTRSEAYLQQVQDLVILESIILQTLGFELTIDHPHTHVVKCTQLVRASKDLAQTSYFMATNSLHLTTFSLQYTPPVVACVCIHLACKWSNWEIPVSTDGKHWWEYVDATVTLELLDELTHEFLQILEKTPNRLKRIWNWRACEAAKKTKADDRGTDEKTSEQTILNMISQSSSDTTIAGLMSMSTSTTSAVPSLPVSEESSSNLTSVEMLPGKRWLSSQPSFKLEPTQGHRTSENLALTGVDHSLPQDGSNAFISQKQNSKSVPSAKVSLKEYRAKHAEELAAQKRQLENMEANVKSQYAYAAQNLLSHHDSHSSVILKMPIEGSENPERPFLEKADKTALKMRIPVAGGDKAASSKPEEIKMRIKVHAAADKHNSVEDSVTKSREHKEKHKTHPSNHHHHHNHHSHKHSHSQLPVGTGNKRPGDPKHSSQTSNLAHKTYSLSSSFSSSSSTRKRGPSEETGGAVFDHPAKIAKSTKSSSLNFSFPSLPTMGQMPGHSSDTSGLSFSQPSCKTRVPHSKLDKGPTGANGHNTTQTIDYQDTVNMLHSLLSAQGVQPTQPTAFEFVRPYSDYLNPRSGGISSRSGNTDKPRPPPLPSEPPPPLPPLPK
# Summary of the method: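 Recombinant purified enzyme complexes assayed by IMAP fluorescence polarization with 1% final DMSO, 2 h at room temperature; stopped with 1× Developer buffer (85% A/15% B) plus IMAP beads 1/400, then 1 h further at room temperature. IC50 from normalized mP versus log compound concentration.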
# [1] = test system: RNA Polymerase II CTD Serine2 Phosphorylation; assay: H5 (Ser2) Ab High Content Screen: RNA Polymerase II CTD Serine2 Phosphorylation Assay in Hep3B cells; type: cell-based; details: Homo sapiens, 2 hours with compound, H5 antibody staining
# Procedure: H5 (also referred as Ser2) Ab High Content Screen: RNA Polymerase II CTD Serine2 Phosphorylation Assay
# 1. Cells are plated into 384 well plates: 30 μl of Hep3B cells (4,000 cells/30 μl) in DMEM with 3% FBS are plated into wells of a tissue culture treated clear bottomed 384 well plate. Cells are allowed to adhere during an overnight incubation.
# 2. Cells are treated with compounds for two hours: 10 μl of DMEM with 3% FBS is added to each well with a final concentration of DMSO equal to 1%. Cells are incubated with compounds for 2 hours.
# 3. Cells are fixed and permeabilized. Cells are washed with 30 mM HEPES pH=7.3 then fixed in 4% paraformaldehyde in 30 mM HEPES pH=7.3 for one hour at room temperature. The fix is removed by washing the cells with Tris buffered saline (TBS) and the cells are permeabilized by incubation in TBS with 0.5% triton X-100 for 30 minutes at room temperature. Triton is removed by washing the cells with TBS.
# 4. […] Incubate primary H5 Ab (1/250 ) overnight at 4 degrees in TBS with 1% BSA and 0.1% Tween-20. The next day wash cells with TBS. […] Wash cells with PBS.
# 5. Measure staining using the In-cell Analyzer system from GE Healthcare.
# CDK1/cyclinB = molecular target: T4, CDK1/cyclinB (Homo sapiens, UniProt P06493); assay: CDK1/cyclinB kinase assay, IMAP fluorescence polarization; type: biochemical; details: read-out: CDK1 IC50
# T4 construct: purchased Millipore
# T4 sequence (P06493 whole entry): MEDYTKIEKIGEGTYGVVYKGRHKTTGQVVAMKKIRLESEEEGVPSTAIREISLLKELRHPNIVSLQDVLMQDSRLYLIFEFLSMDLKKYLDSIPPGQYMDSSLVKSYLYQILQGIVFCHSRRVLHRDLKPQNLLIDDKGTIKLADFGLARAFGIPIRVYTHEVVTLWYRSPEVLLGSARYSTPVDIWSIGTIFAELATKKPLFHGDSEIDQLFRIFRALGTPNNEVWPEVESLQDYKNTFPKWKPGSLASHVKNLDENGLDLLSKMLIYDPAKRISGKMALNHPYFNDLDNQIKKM
# T4 sequence (P14635 whole entry partner): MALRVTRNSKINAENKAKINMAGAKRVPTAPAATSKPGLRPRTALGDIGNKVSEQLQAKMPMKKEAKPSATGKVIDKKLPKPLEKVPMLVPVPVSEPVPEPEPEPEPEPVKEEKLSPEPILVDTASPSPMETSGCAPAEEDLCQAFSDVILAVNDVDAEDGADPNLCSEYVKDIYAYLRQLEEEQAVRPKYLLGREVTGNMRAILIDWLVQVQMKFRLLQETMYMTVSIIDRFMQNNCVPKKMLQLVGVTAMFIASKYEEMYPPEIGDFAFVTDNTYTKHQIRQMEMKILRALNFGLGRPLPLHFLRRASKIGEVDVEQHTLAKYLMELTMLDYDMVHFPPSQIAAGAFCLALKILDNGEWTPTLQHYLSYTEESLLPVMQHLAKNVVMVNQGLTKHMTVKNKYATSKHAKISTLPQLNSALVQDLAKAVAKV
# Summary of the method: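 IMAP fluorescence polarization assay on recombinant purified enzyme, compounds at final 1% DMSO. Reaction run 2 h at room temperature, stopped, held 1 h more before reading polarization.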
# CDK5 = CDK5 (Homo sapiens, UniProt Q00535); assay: CDK5 kinase assay (Table F); type: biochemical
# CDK5, sequence (Q00535 whole entry, species assumed): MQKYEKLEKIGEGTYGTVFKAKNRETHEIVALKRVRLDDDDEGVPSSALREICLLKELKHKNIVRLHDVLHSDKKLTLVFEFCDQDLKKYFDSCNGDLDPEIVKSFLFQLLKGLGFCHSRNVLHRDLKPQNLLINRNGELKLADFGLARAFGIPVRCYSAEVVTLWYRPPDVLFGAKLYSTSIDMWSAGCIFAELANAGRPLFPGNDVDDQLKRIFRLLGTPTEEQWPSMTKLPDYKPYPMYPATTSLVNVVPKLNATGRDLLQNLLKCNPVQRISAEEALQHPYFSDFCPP
# CDK5, sequence (Q15078 whole entry partner, species assumed): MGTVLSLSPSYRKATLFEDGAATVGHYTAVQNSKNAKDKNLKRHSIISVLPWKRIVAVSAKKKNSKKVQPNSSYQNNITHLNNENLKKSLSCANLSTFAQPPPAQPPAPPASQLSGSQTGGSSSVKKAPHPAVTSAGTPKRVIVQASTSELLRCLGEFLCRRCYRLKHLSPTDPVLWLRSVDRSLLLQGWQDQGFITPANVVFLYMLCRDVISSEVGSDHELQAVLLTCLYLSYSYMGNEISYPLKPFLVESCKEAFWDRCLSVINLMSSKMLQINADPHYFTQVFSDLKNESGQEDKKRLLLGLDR
SMILES,IC50 (CDK2/cyclinA),IC50 (CDK7/cyclinH/MAT1),IC50 (CDK4),IC50 (CDK9/cyclinT1),IC50 [1],IC50 (CDK1/cyclinB),IC50 (CDK5)
"Clc1cccc(Nc2nccc(-c3cccnc3NCCCn3ccnc3)n2)c1 [Compound 80, (3-Chloro-phenyl)-{4-[2-(3-imidazol-1-yl-propylamino)-pyridin-3-yl]-pyrimidin-2-yl}-amine]",< 5 µM,< 5 µM,5 to 15 µM,< 5 µM,< 5 µM,< 5 µM,< 5 µM
"CC(=O)NCCCNc1nccc(-c2ccnc(Nc3cccc(Cl)c3)n2)c1C [Compound 6, N-(3-{4-[2-(3-Chloro-phenylamino)-pyrimidin-4-yl]-3-methyl-pyridin-2-ylamino}-propyl)-acetamide]",< 5 µM,< 5 µM,5 to 15 µM,< 5 µM,5 to 15 µM,5 to 15 µM,–
"CNCCNc1nccc(-c2ccnc(Nc3cccc(Cl)c3)n2)c1C [Compound 3, N-{4-[2-(3-Chloro-phenylamino)-pyrimidin-4-yl]-3-methyl-pyridin-2-yl}-N′-methyl-ethane-1,2-diamine]",< 5 µM,< 5 µM,< 5 µM,< 5 µM,< 5 µM,< 5 µM,< 5 µM
"NCCNc1ncccc1-c1ccnc(Nc2cccc(Cl)c2)n1 [Compound 52, N-{3-[2-(3-Chloro-phenylamino)-pyrimidin-4-yl]-pyridin-2-yl}-ethane-1,2-diamine]",< 5 µM,< 5 µM,< 5 µM,< 5 µM,< 5 µM,< 5 µM,< 5 µM
"CC(=O)NCCCNc1cc(-c2nc(Nc3cccc(Cl)c3)ncc2C)ccn1 [Compound 32, N-(3-{4-[2-(3-Chloro-phenylamino)-5-methyl-pyrimidin-4-yl]-pyridin-2-ylamino}-propyl)-acetamide]",< 5 µM,< 5 µM,15 to 50 µM,< 5 µM,< 5 µM,< 5 µM,< 5 µM
"COc1ncccc1-c1ccnc(Nc2cccc(C#N)c2)n1 [Compound 91, 3-[4-(2-Methoxy-pyridin-3-yl)-pyrimidin-2-ylamino]-benzonitrile]",< 5 µM,> 50 µM,15 to 50 µM,< 5 µM,> 50 µM,< 5 µM,< 5 µM
"NCCCNc1ncccc1-c1ccnc(Nc2cccc(S(N)(=O)=O)c2)n1 [Compound 59, 3-{4-[2-(3-Amino-propylamino)-pyridin-3-yl]-pyrimidin-2-ylamino}-benzenesulfonamide]",< 5 µM,–,5 to 15 µM,< 5 µM,15 to 50 µM,< 5 µM,< 5 µM
"Clc1cccc(Nc2nccc(-c3ccnc4ccccc34)n2)c1 [Compound 48, (3-Chloro-phenyl)-(4-quinolin-4-yl-pyrimidin-2-yl)-amine]",–,–,5 to 15 µM,< 5 µM,< 5 µM,< 5 µM,< 5 µM
"OCCCNc1ncccc1-c1ccnc(Nc2cccc(Cl)c2)n1 [Compound 74, 3-{3-[2-(3-Chloro-phenylamino)-pyrimidin-4-yl]-pyridin-2-ylamino}-propan-1-ol]",< 5 µM,< 5 µM,15 to 50 µM,< 5 µM,< 5 µM,< 5 µM,< 5 µM
"COc1ncccc1-c1ccnc(Nc2cccc(S(C)(=O)=O)c2)n1 [Compound 93, (3-Methanesulfonyl-phenyl)-[4-(2-methoxy-pyridin-3-yl)-pyrimidin-2-yl]-amine]",< 5 µM,–,15 to 50 µM,< 5 µM,< 5 µM,< 5 µM,< 5 µM
"COc1ncccc1-c1ccnc(Nc2cccc(S(N)(=O)=O)c2)n1 [Compound 99, 3-[4-(2-Methoxy-pyridin-3-yl)-pyrimidin-2-ylamino]-benzenesulfonamide]",< 5 µM,5 to 15 µM,< 5 µM,< 5 µM,< 5 µM,< 5 µM,< 5 µM
"NCCCNc1ncccc1-c1ccnc(Nc2cccc(Cl)c2)n1 [Compound 55, N-{3-[2-(3-Chloro-phenylamino)-pyrimidin-4-yl]-pyridin-2-yl}-propane-1,3-diamine]",< 5 µM,< 5 µM,< 5 µM,< 5 µM,< 5 µM,< 5 µM,< 5 µM
"CC(C)(CN)CNc1ncccc1-c1ccnc(Nc2cccc(Cl)c2)n1 [Compound 61, N-{3-[2-(3-Chloro-phenylamino)-pyrimidin-4-yl]-pyridin-2-yl}-2,2-dimethyl-propane-1,3-diamine]",< 5 µM,< 5 µM,< 5 µM,< 5 µM,< 5 µM,< 5 µM,15 to 50 µM
"N#Cc1cccc(Nc2nccc(-c3cccnc3NCCCN)n2)c1 [Compound 60, 3-{4-[2-(3-Amino-propylamino)-pyridin-3-yl]-pyrimidin-2-ylamino}-benzonitrile]",< 5 µM,< 5 µM,< 5 µM,< 5 µM,< 5 µM,< 5 µM,< 5 µM
"NCCCCNc1ncccc1-c1ccnc(Nc2cccc(Cl)c2)n1 [Compound 84, N-{3-[2-(3-Chloro-phenylamino)-pyrimidin-4-yl]-pyridin-2-yl}-butane-1,4-diamine]",< 5 µM,–,< 5 µM,< 5 µM,< 5 µM,< 5 µM,< 5 µM
"CC(=O)NCCCNc1ncccc1-c1ccnc(Nc2cccc(Cl)c2)n1 [Compound 65, N-(3-{3-[2-(3-Chloro-phenylamino)-pyrimidin-4-yl]-pyridin-2-ylamino}-propyl)-acetamide]",< 5 µM,–,15 to 50 µM,< 5 µM,< 5 µM,< 5 µM,< 5 µM
"COc1ccc(-c2ccnc(Nc3cccc(S(C)(=O)=O)c3)n2)c(OC)n1 [Compound 119, [4-(2,6-Dimethoxy-pyridin-3-yl)-pyrimidin-2-yl]-(3-methanesulfonyl-phenyl)-amine]",< 5 µM,> 50 µM,15 to 50 µM,< 5 µM,> 50 µM,< 5 µM,5 to 15 µM
"CC(=O)NCC(C)(C)CNc1ncccc1-c1ccnc(Nc2cccc(Cl)c2)n1 [Compound 73, N-(3-{3-[2-(3-Chloro-phenylamino)-pyrimidin-4-yl]-pyridin-2-ylamino}-2,2-dimethyl-propyl)-acetamide]",< 5 µM,–,15 to 50 µM,< 5 µM,5 to 15 µM,< 5 µM,5 to 15 µM
"CS(=O)(=O)NCCCNc1ncccc1-c1ccnc(Nc2cccc(Cl)c2)n1 [Compound 72, N-(3-{3-[2-(3-Chloro-phenylamino)-pyrimidin-4-yl]-pyridin-2-ylamino}-propyl)-methanesulfonamide]",< 5 µM,–,15 to 50 µM,< 5 µM,< 5 µM,< 5 µM,< 5 µM
"Cc1c(-c2ccnc(Nc3cccc(Cl)c3)n2)ccnc1NCCCn1ccnc1 [Compound 23, (3-Chloro-phenyl)-{4-[2-(3-imidazol-1-yl-propylamino)-3-methyl-pyridin-4-yl]-pyrimidin-2-yl}-amine]",< 5 µM,–,15 to 50 µM,< 5 µM,5 to 15 µM,5 to 15 µM,< 5 µM
"CS(=O)(=O)c1cccc(Nc2nccc(-c3cccnc3NCCCN)n2)c1 [Compound 58, N-{3-[2-(3-Methanesulfonyl-phenylamino)-pyrimidin-4-yl]-pyridin-2-yl}-propane-1,3-diamine]",< 5 µM,–,< 5 µM,< 5 µM,< 5 µM,< 5 µM,< 5 µM
